Peptide text beside a SMILES is read from it.
Columns and labels:
Assay type in all cases: cell-based
[1] = tested on: Erwinia amylovora PMV6076; assay: Antibacterial activity (MIC), in vitro growth inhibition; conditions: Table S1, MIC range
Procedure: (§1) Erwinia amylovora PMV6076 (Institut National de la Recherche Agronomique, Angers, France), Pseudomonas syringae pv. syringae EPS94 (Institut de Tecnologia Agroalimentària, Universitat de Girona, Spain), and Xanthomonas axonopodis pv. vesicatoria 2133-2 (Instituto Valenciano de Investigaciones Agrarias, Valencia, Spain) were used as bacterial strains. They were stored and cultivated as previously described.
(§2) The minimum inhibitory concentration (MIC) was analyzed as previously described at 0.8, 1.6, 3.1, 6.2, 12.5, 25 and 50 μM [20].

[2] = tested on: Pseudomonas syringae pv. syringae EPS94; assay: as above; conditions: Table S1, MIC range
Procedure: as §1, §2

[3] = tested on: Xanthomonas axonopodis pv. vesicatoria 2133-2; conditions: Table S1, MIC range
Procedure: as §1, §2

[4] = tested on: erythrocyte suspensions of human blood; assay: Hemolytic activity, hemoglobin release; conditions: human blood erythrocytes 5% v/v, absorbance 540 nm, percentage compared to melittin, three replicates; for Hemolysis (%) at 50 µM: peptide 50 μM (table prints 50 µM); for Hemolysis (%) at 125 µM: peptide 125 μM (table prints 125 µM)
Procedure: The hemolytic activity of the compounds was evaluated at 50 and 125 μM by determining hemoglobin release from erythrocyte suspensions of human blood (5% v/v) (Oxoid) using absorbance at 540 nm, as previously described. Three replicates for each peptide concentration were used.

SMILES	MIC Ea [1]	MIC Pss [2]	MIC Xav [3]	Hemolysis (%) at 50 µM [4]	Hemolysis (%) at 125 µM [4]
CC(C)C[C@@H]1NC(=O)[C@H](CCCCN)NC(=O)[C@H](CCCCN)NC(=O)[C@H](CCCCN)NC(=O)[C@H](CCCCN)NC(=O)[C@H](CCC(N)=O)NC(=O)[C@H](CC(C)C)NC(=O)[C@H](CC(C)C)NC(=O)[C@H](CCCCN)NC(=O)[C@H](Cc2c[nH]c3ccccc23)NC1=O [BPC060W, c(KKKKLWKLLQ)] (cyclo(KKKKLWKLLQ))	12.5 to 25 µM	3.1 to 6.2 µM	6.2 to 12.5 µM	22%	29%
CC(C)C[C@@H]1NC(=O)[C@H](CCCCN)NC(=O)[C@H](CCCCN)NC(=O)[C@H](CCCCN)NC(=O)[C@H](CCC(N)=O)NC(=O)[C@H](CC(C)C)NC(=O)[C@H](CC(C)C)NC(=O)[C@H](CCCCN)NC(=O)[C@H](Cc2c[nH]c3ccccc23)NC(=O)[C@H](CCCCN)NC1=O [BPC062W, c(KKKLKWKLLQ)] (cyclo(KKKLKWKLLQ))	12.5 to 25 µM	3.1 to 6.2 µM	6.2 to 12.5 µM	3%	4%
CC(C)C[C@@H]1NC(=O)[C@H](CCCCN)NC(=O)[C@H](CCCCN)NC(=O)[C@H](CCC(N)=O)NC(=O)[C@H](CC(C)C)NC(=O)[C@H](CC(C)C)NC(=O)[C@H](CCCCN)NC(=O)[C@H](Cc2c[nH]c3ccccc23)NC(=O)[C@H](CCCCN)NC(=O)[C@H](CCCCN)NC1=O [BPC064W, c(KKLKKWKLLQ)] (cyclo(KKLKKWKLLQ))	6.2 to 12.5 µM	3.1 to 6.2 µM	6.2 to 12.5 µM	17%	25%
CC(C)C[C@@H]1NC(=O)[C@H](CCCCN)NC(=O)[C@H](CCC(N)=O)NC(=O)[C@H](CC(C)C)NC(=O)[C@H](CC(C)C)NC(=O)[C@H](CCCCN)NC(=O)[C@H](Cc2c[nH]c3ccccc23)NC(=O)[C@H](CCCCN)NC(=O)[C@H](CCCCN)NC(=O)[C@H](CCCCN)NC1=O [BPC066W, c(KLKKKWKLLQ)] (cyclo(KKKWKLLQKL))	6.2 to 12.5 µM	6.2 to 12.5 µM	6.2 to 12.5 µM	33%	41%
CC(C)C[C@@H]1NC(=O)[C@H](CCC(N)=O)NC(=O)[C@H](CC(C)C)NC(=O)[C@H](CC(C)C)NC(=O)[C@H](CCCCN)NC(=O)[C@H](Cc2c[nH]c3ccccc23)NC(=O)[C@H](CCCCN)NC(=O)[C@H](CCCCN)NC(=O)[C@H](CCCCN)NC(=O)[C@H](CCCCN)NC1=O [BPC068W, c(LKKKKWKLLQ)] (cyclo(KKKKWKLLQL))	25 to 50 µM	6.2 to 12.5 µM	1.6 to 3.1 µM	6%	7%
CC(C)C[C@@H]1NC(=O)[C@H](CCCCN)NC(=O)[C@H](CC(C)C)NC(=O)[C@H](Cc2c[nH]c3ccccc23)NC(=O)[C@H](CC(C)C)NC(=O)[C@H](CCCCN)NC(=O)[C@H](CCCCN)NC(=O)[C@H](CCCCN)NC(=O)[C@H](CCCCN)NC(=O)[C@H](CCC(N)=O)NC1=O [BPC070W, c(KKKKLWLKLQ)] (cyclo(KKKKLWLKLQ))	12.5 to 25 µM	6.2 to 12.5 µM	1.6 to 3.1 µM	6%	9%
CC(C)C[C@@H]1NC(=O)[C@H](CCCCN)NC(=O)[C@H](CC(C)C)NC(=O)[C@H](Cc2c[nH]c3ccccc23)NC(=O)[C@H](CCCCN)NC(=O)[C@H](CC(C)C)NC(=O)[C@H](CCCCN)NC(=O)[C@H](CCCCN)NC(=O)[C@H](CCCCN)NC(=O)[C@H](CCC(N)=O)NC1=O [BPC072W, c(KKKLKWLKLQ)] (cyclo(KKKLKWLKLQ))	12.5 to 25 µM	3.1 to 6.2 µM	1.6 to 3.1 µM	7%	9% and below 20%
CC(C)C[C@@H]1NC(=O)[C@H](CCCCN)NC(=O)[C@H](CCCCN)NC(=O)[C@H](CCC(N)=O)NC(=O)[C@H](CC(C)C)NC(=O)[C@H](CCCCN)NC(=O)[C@H](CC(C)C)NC(=O)[C@H](Cc2c[nH]c3ccccc23)NC(=O)[C@H](CCCCN)NC(=O)[C@H](CCCCN)NC1=O [BPC074W, c(KKLKKWLKLQ)] (cyclo(KKLKKWLKLQ))	12.5 to 25 µM	6.2 to 12.5 µM	1.6 to 3.1 µM	39%	50%
CC(C)C[C@@H]1NC(=O)[C@H](CCCCN)NC(=O)[C@H](CCCCN)NC(=O)[C@H](Cc2c[nH]c3ccccc23)NC(=O)[C@H](CCCCN)NC(=O)[C@H](CC(C)C)NC(=O)[C@H](CCCCN)NC(=O)[C@H](CCCCN)NC(=O)[C@H](CCCCN)NC(=O)[C@H](CCC(N)=O)NC1=O [BPC186W, c(KKKLKWKKLQ)] (cyclo(KKKLKWKKLQ))		12.5 to 25 µM	6.2 to 12.5 µM	1%	1%
CC(C)C[C@@H]1NC(=O)[C@H](CCCCN)NC(=O)[C@H](CCCCN)NC(=O)[C@H](Cc2c[nH]c3ccccc23)NC(=O)[C@H](CCCCN)NC(=O)[C@H](CCCCN)NC(=O)[C@H](CC(C)C)NC(=O)[C@H](CC(C)C)NC(=O)[C@H](CC(C)C)NC(=O)[C@H](CCC(N)=O)NC1=O [BPC188W, c(LLLKKWKKLQ)] (cyclo(KKLQLLLKKW))		6.2 to 12.5 µM	12.5 to 25 µM	33%	48%
CC(C)C[C@@H]1NC(=O)[C@H](CCC(N)=O)NC(=O)[C@H](CC(C)C)NC(=O)[C@H](CCCCN)NC(=O)[C@H](CCCCN)NC(=O)[C@H](Cc2c[nH]c3ccccc23)NC(=O)[C@H](CCCCN)NC(=O)[C@H](CCCCN)NC(=O)[C@H](CCCCN)NC(=O)[C@H](CCCCN)NC1=O [BPC190W, c(LKKKKWKKLQ)] (cyclo(KKKKWKKLQL))		25 to 50 µM	12.5 to 25 µM	1%	3%
CC(C)C[C@@H]1NC(=O)[C@H](CCCCN)NC(=O)[C@H](CC(C)C)NC(=O)[C@H](CC(C)C)NC(=O)[C@H](CCC(N)=O)NC(=O)[C@H](CC(C)C)NC(=O)[C@H](CCCCN)NC(=O)[C@H](CCCCN)NC(=O)[C@H](Cc2c[nH]c3ccccc23)NC(=O)[C@H](CCCCN)NC1=O [BPC196W, c(LLKLKWKKLQ)] (cyclo(KKLQLLKLKW))		3.1 to 6.2 µM	1.6 to 3.1 µM	2%	3%
CC(C)C[C@@H]1NC(=O)[C@H](CCCCN)NC(=O)[C@H](CCCCN)NC(=O)[C@H](Cc2c[nH]c3ccccc23)NC(=O)[C@H](CCCCN)NC(=O)[C@H](CC(C)C)NC(=O)[C@H](CC(C)C)NC(=O)[C@H](CC(C)C)NC(=O)[C@H](CC(C)C)NC(=O)[C@H](CCC(N)=O)NC1=O [BPC200W, c(LLLLKWKKLQ)] (cyclo(KKLQLLLLKW))		> 50 µM	3.1 to 6.2 µM	6%	7%
CC(C)C[C@@H]1NC(=O)[C@H](CCCCN)NC(=O)[C@H](CCCCN)NC(=O)[C@H](Cc2c[nH]c3ccccc23)NC(=O)[C@H](CCCCN)NC(=O)[C@H](CCCCN)NC(=O)[C@H](CCCCN)NC(=O)[C@H](CCCCN)NC(=O)[C@H](CCCCN)NC(=O)[C@H](CCC(N)=O)NC1=O [BPC202W, c(KKKKKWKKLQ)] (cyclo(KKKKKWKKLQ))		25 to 50 µM	12.5 to 25 µM	0%	1%
